Laboratory results as given in patent US11976083B2, “Inhibitors of peptidylarginine deiminases” (Gilead Sciences, Inc., priority 2020, dated 2024).

Target: T1, human PAD4 (Homo sapiens, UniProt Q9UM07)
T1 construct: human PAD4 (NM_012387), A2-P663, was PCR amplified; His-SUMO (N, cleaved yes); made in house; host or cells: E. coli BL21(DE3)
Experiment: In vitro PAD4 BAEE biochemical assay
Conditions: BAEE substrate 3 mM, 5 nM PAD4, 2 mM calcium chloride; geometric mean of multiple experiments
Method in brief: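 Recombinant PAD4 (5 nM final) with 2 mM CaCl2 was preincubated with compound for 30 min at 25 °C in MOPS pH 7.6 buffer with DTT, then reacted with 3 mM BAEE for 2 h at 25 °C. Released ammonia was detected fluorimetrically with o-phthalaldehyde/DTT; IC50 from four-parameter fit, geometric mean of experiments.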

T1 sequence (Q9UM07 2-663): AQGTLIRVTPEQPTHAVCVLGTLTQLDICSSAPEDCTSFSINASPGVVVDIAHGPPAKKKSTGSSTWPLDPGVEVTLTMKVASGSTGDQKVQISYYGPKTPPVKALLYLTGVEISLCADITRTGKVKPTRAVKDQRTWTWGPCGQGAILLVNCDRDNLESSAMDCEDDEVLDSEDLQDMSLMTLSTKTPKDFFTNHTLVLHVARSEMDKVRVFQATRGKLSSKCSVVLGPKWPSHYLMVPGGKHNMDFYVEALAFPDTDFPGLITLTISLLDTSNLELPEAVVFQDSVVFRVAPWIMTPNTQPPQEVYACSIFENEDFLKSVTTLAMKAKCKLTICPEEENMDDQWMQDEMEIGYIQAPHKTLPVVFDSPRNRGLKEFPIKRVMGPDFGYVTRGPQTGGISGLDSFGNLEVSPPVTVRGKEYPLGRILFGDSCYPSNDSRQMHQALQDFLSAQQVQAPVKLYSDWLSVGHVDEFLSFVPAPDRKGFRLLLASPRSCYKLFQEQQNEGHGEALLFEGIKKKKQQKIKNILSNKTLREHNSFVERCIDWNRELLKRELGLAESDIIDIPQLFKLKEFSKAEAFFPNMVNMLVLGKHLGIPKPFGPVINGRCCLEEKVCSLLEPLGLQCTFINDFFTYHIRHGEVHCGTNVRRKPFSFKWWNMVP

Q: C[C@H]1NC(=O)[C@@H]2C[C@H]2CCCC(F)(F)Cn2c(-c3nc4cc(C(=O)N5C[C@H](N)C[C@@H](F)C5)cc(F)c4n3C3CC3)cc3ccc1nc32 [Example 640, (2~{R},5~{R},7~{R})-14-[5-[(3~{R},5~{R})-3-amino-5-fluoro-piperidine-1-carbonyl]-1-cyclopropyl-7-fluoro-benzimidazol-2-yl]-11,11-difluoro-2-methyl-3,13,19-triazatetracyclo[11.5.2.0^ {5,7}.0^{16,20}]icosa-1(19),14,16(20),17-tetraen-4-one] was tested. Which IC50 did it give?
A: 24 nM

Q: How did the IC50 turn out when [2H]C([2H])([2H])O[C@@H]1CCN(C(=O)c2cc(F)c3c(c2)nc(-c2cc4ccc5nc4n2CC(F)(F)CCC[C@@H]2C[C@H]2C(=O)N[C@@H]5C)n3C2CC2)C[C@@H]1N [Example 641, (2~{R},5~{R},7~{R})-14-[5-[(3~{S},4~{R})-3-amino-4-(trideuteriomethoxy)piperidine-1-carbonyl]-1-cyclopropyl-7-fluoro-benzimidazol-2-yl]-11,11-difluoro-2-methyl-3,13,19-triazatetracyclo[11.5.2.0^ {5,7}.0^{16,20}]icosa-1(19),14,16(20),17-tetraen-4-one] was run?
A: 49 nM

Q: Which IC50 does the source give for COc1cc(C(=O)N2[C@H]3CC[C@@H]2[C@H](N)C3)cc2nc(-c3cc4ccc5nc4n3CC(F)(F)CCC[C@@H]3C[C@H]3C(=O)N[C@@H]5C)n(C)c12 [Example 642, (2~{R},5~{R},7~{R})-14-[5-[(1~{R},2~{R},4~ {S})-2-amino-7-azabicyclo[2.2.1]heptane-7-carbonyl]-7-methoxy-1-methyl-benzimidazol-2-yl]-11,11-difluoro-2-methyl-3,13,19-triazatetracyclo [11.5.2.0^{5,7}.0^{16,20}] icosa-1(19),14,16(20), 17-tetraen-4-one] here?
A: 23 nM

Q: With COc1cc(C(=O)N2CC[C@@H](OC)[C@@H](N)C2)cc2nc(-c3cc4ccc5c(F)c4n3CCCCCCC(C)(C)C(=O)N[C@@H]5C)n(C)c12 [Example 643, (11~{R})-17-[5-[(3~{S}, 4~{R})-3-amino-4-methoxy-piperidine-1-carbonyl]-7-methoxy-1-methyl-benzimidazol-2-yl]-19-fluoro-8,8,11-trimethyl-1,10-diazatricyclo[10.5.2.0^ {15,18}]nonadeca-12(19),13,15(18),16-tetraen-9-one] as the molecule, how does the IC50 read?
A: 54 nM

Q: Which IC50 does the source give for COc1cc(C(=O)N2CCC[C@@H](N)[C@H]2C(F)F)cc2nc(-c3cc4ccc5nc4n3CCCCCCC(C)(C)C(=O)N[C@@H]5C)n(C)c12 [Example 644, (11~{R})-17-[5-[(2~{S), 3~{R})-3-amino-2-(difluoromethyl)piperidine-1-carbonyl]-7-methoxy-1-methyl-benzimidazol-2-yl]-8,8,11-trimethyl-1,10,19-triazatricyclo [10.5.2.0^{15,18}]nonadeca-12(19),13,15(18),16-tetraen-9-one] here?
A: 76 nM

Q: For COc1cc(C(=O)N2CCC[C@@H](N)[C@H]2C)cc2nc(-c3cc4ccc5c(F)c4n3CCCCCCC(C)(C)C(=O)N[C@@H]5C)n(C)c12 [Example 645, (11~{R})-17-[5-[(2~{R},3~ {R})-3-amino-2-methyl-piperidine-1-carbonyl]-7-methoxy-1-methyl-benzimidazol-2-yl]-19-fluoro-8,8,11-trimethyl-1,10-diazatricyclo [10.5.2.0^{15,18}]nonadeca-12(19),13,15(18),16-tetraen-9-one], which IC50 is on record?
A: 36 nM

Q: How did the IC50 turn out when C[C@H]1NC(=O)[C@@H]2C[C@H]2CCCC(F)(F)Cn2c(-c3nc4cc(C(=O)N5C[C@H]6CC[C@@H]5[C@@H]6N)cc(F)c4n3C3CC3)cc3ccc1nc32 [Example 646, (2~{R},5~{R},7~{R})-14-[5-[(1~{R},4~{R},7~{R})-7-amino-2-azabicyclo [2.2.1]heptane-2-carbonyl]-1-cyclopropyl-7-fluoro-benzimidazol-2-yl]-11,11-difluoro-2-methyl-3,13,19-triazatetracyclo [11.5.2.0^{5,7}.0^{16,20}] icosa-1(19),14,16(20), 17-tetraen-4-one] was run?
A: 22 nM

Q: With COc1cc(C(=O)N2CCC[C@@H](N)[C@H]2C(F)F)cc2nc(-c3cc4ccc5nc4n3CC(F)(F)CCC[C@@H]3C[C@H]3C(=O)N[C@@H]5C)n(C)c12 [Example 647, (2~{R},5~{R},7~{R})-14-[5-[(2~{S},3~{R})-3-amino-2-(difluoromethyl)piperidine-1-carbonyl]-7-methoxy-1-methyl-benzimidazol-2-yl]-11,11-difluoro-2-methyl-3,13,19-triazatetracyclo[11.5.2.0^ {5,7}.0^{16,20}] icosa-1(19),14,16(20), 17-tetraen-4-one] as the molecule, how does the IC50 read?
A: 58 nM

Q: Which IC50 does the source give for COc1cc(C(=O)N2CC[C@@H](OC)[C@@H](N)C2)cc2nc(-c3cc4ccc5c(F)c4n3CC(F)(F)CCC[C@@H]3C[C@H]3C(=O)N[C@@H]5C)n(C)c12 [Example 648, (2~{R},5~{R},7~{R})-14-[5-[(3~{S},4~{R})-3-amino-4-methoxy-piperidine-1-carbonyl]-7-methoxy-1-methyl-benzimidazol-2-yl]-11,11,19-trifluoro-2-methyl-3,13-diazatetracyclo[11.5.2.0^ {5,7}.0^{16,20}] icosa-1(19),14,16(20), 17-tetraen-4-one] here?
A: 41 nM

Q: COc1cc(C(=O)N2CC[C@@H](OC)[C@@H](N)C2)cc2nc(-c3cc4ccc5nc4n3CCCCCc3ccncc3C(=O)N[C@@H]5C)n(C)c12 [Example 649, (2~{R})-17-[5-[(3~{S), 4~{R})-3-amino-4-methoxy-piperidine-1-carbonyl]-7-methoxy-1-methyl-benzimidazol-2-yl]-2-methyl-3,7,16,22-tetrazatetracyclo[14.5.2.0^ {5,10}.0^{19,23}] tricosa-1(22),5,7,9,17,19(23), 20-heptaen-4-one] was tested. Which IC50 did it give?
A: 52 nM

Q: COc1cc(C(=O)N2CC[C@@H](OC)[C@@H](N)C2)cc2nc(-c3cc4ccc5nc4n3CCCCCc3cncc(F)c3C(=O)N[C@@H]5C)n(C)c12 [Example 650, (2~{R})-17-[5-[(3~{S}, 4~{R})-3-amino-4-methoxy-piperidine-1-carbonyl]-7-methoxy-1-methyl-benzimidazol-2-yl]-6-fluoro-2-methyl-3,8,16,22-tetrazatetracyclo[14.5.2.0^ {5,10}.0^{19,23}]tricosa-1(22),5,7,9,17,19(23),20-heptaen-4-one] was tested. Which IC50 did it give?
A: 59 nM

Q: Which IC50 does the source give for COc1cc(C(=O)N2CC[C@@H](OC)[C@@H](N)C2)cc2nc(-c3cc4ccc5nc4n3CCCCCc3cncc(Cl)c3C(=O)N[C@@H]5C)n(C)c12 [Example 651, (2~{R})-17-[5-[(3~{S}, 4~{R})-3-amino-4-methoxy-piperidine-1-carbonyl]-7-methoxy-1-methyl-benzimidazol-2-yl]-6-chloro-2-methyl-3,8,16,22-tetrazatetracyclo[14.5.2.0^ {5,10).0^{19,23}]tricosa-1(22),5,7,9,17,19(23),20-heptaen-4-one] here?
A: 59 nM

Q: Which IC50 does the source give for CO[C@@H]1CCN(C(=O)c2ccc3c(c2)nc(-c2cc4ccc5nc4n2CCCCCc2cc(Cl)ncc2C(=O)N[C@@H]5C)n3C2CC2)C[C@@H]1N [Example 652, 17-[5-[(3~{S},4~{R})-3-amino-4-methoxy-piperidine-1-carbonyl]-1-cyclopropyl-benzimidazol-2-yl]-8-chloro-2-methyl-3,7,16,22-tetrazatetracyclo[14.5.2.0^ {5,10}.0^{19,23}] tricosa-1(22),5,7,9,17,19(23), 20-heptaen-4-one] here?
A: 42 nM

Q: COc1cc(C(=O)N2CC[C@@H](OC)[C@@H](N)C2)cc2nc(-c3cc4ccc5nc4n3CCCCCc3cc(Cl)ncc3C(=O)N[C@@H]5C)n(C)c12 [Example 653, 17-[5-[(3~{S},4~{R})-3-amino-4-methoxy-piperidine-1-carbonyl]-7-methoxy-1-methyl-benzimidazol-2-yl]-8-chloro-2-methyl-3,7,16,22-tetrazatetracyclo[14.5.2.0^ {5,10}.0^{19,23}] tricosa-1(22),5,7,9,17,19(23), 20-heptaen-4-one] was tested. Which IC50 did it give?
A: 44 nM

Q: With COc1cc(C(=O)N2CC[C@@H](OC)[C@@H](N)C2)cc2nc(-c3cc4ccc5nc4n3CCCCCc3ccccc3C(=O)N(C)[C@@H]5C)n(C)c12 [Example 654, (2~{R})-17-[5-[(3~{S},4~{R})-3-amino-4-methoxy-piperidine-1-carbonyl]-7-methoxy-1-methyl-benzimidazol-2-yl]-2,3-dimethyl-3,16,22-triazatetracyclo[14.5.2.0^ {5,10).0^{19,23}] tricosa-1(22),5,7,9,17,19(23), 20-heptaen-4-one] as the molecule, how does the IC50 read?
A: 51 nM

Q: For COc1cc(C(=O)N2CC[C@@H](OC)[C@@H](N)C2)cc2nc(-c3cc4ccc5nc4n3CCCCCc3ccnc(Cl)c3C(=O)N[C@@H]5C)n(C)c12 [Example 655, (2~{R})-17-[5-[(3~{S},4~{R})-3-amino-4-methoxy-piperidine-1-carbonyl]-7-methoxy-1-methyl-benzimidazol-2-yl]-6-chloro-2-methyl-3,7,16,22-tetrazatetracyclo[14.5.2.0^ {5,10}.0^{19,23}] tricosa-1(22),5,7,9,17,19(23), 20-heptaen-4-one], which IC50 is on record?
A: 60 nM

Q: Which IC50 does the source give for COc1cc(C(=O)N2CC[C@@H](OC)[C@@H](N)C2)cc2nc(-c3cc4ccc5nc4n3CCCCCc3nccc(F)c3C(=O)N[C@@H]5C)n(C)c12 [Example 656, (2˜{R})-17-[5-[(3˜{S},4˜{R})-3-amino-4-methoxy-piperidine-1-carbonyl]-7-methoxy-1-methyl-benzimidazol-2-yl]-6-fluoro-2-methyl-3,9,16,22-tetrazatetracyclo[14.5.2.0^{5,10}.0^{19,23}]tricosa-1(22),5,7,9,17,19(23),20-heptaen-4-one] here?
A: 124 nM

Q: For COc1cc(C(=O)N2CCC[C@@H](N)[C@H]2C)cc2nc(-c3cc4ccc5nc4n3CCCCCc3cncc(F)c3C(=O)N[C@@H]5C)n(C)c12 [Example 657, (2~{R})-17-[5-[(2~{R},3~{R})-3-amino-2-methyl-piperidine-1-carbonyl]-7-methoxy-1-methyl-benzimidazol-2-yl]-6-fluoro-2-methyl-3,8,16,22-tetrazatetracyclo [14.5.2.0^{5,10}.0^{19,23}] tricosa-1(22),5,7,9,17,19(23), 20-heptaen-4-one], which IC50 is on record?
A: 14 nM
